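Test compounds were applied to cells in 96-well plates for 48 hours at 5 doses. The concentration for 50% growth inhibition is given as GI50.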 Activity calls are given as the source filed them. Rule as the data show it: active = GI50 up to about 1.1 µM and inactive = higher. Where a SMILES comes first, the peptide text is derived from it. The star is where a group is joined. Boc = CC(C)(C)OC(=O)*; nBu = CCCC*
Legend:
Assay in all cases: NCI tumour cell line growth inhibition, 48 h
U-251 = test system: U-251
SF-295 = test system: SF-295
CCRF-CEM = test system: CCRF-CEM
UACC-257 = test system: UACC-257
LOX IMVI = test system: LOX IMVI
OVCAR-8 = test system: OVCAR-8
NCI-H522 = test system: NCI-H522
UO-31 = test system: UO-31
RPMI-8226 = test system: RPMI-8226
SK-MEL-2 = test system: SK-MEL-2
A549 = test system: A549
SNB-19 = test system: SNB-19
NCI-H226 = test system: NCI-H226
HOP-92 = test system: HOP-92
OVCAR-4 = test system: OVCAR-4
HCT-15 = test system: HCT-15
EKVX = test system: EKVX
UACC-62 = test system: UACC-62
KM12 = test system: KM12
NCI-H460 = test system: NCI-H460

SMILES	GI50 (U-251)	GI50 (SF-295)	GI50 (CCRF-CEM)	GI50 (UACC-257)	GI50 (LOX IMVI)	GI50 (OVCAR-8)	GI50 (NCI-H522)	GI50 (UO-31)	GI50 (RPMI-8226)	GI50 (SK-MEL-2)	GI50 (A549)	GI50 (SNB-19)	GI50 (NCI-H226)	GI50 (HOP-92)	GI50 (OVCAR-4)	GI50 (HCT-15) [µM]	GI50 (EKVX)	GI50 (UACC-62)	GI50 (KM12)	GI50 (NCI-H460)
COc1ccc2c(c1)[n+]([O-])c(/C(C)=N/NC(N)=S)c(C)[n+]2[O-]	44.4 µM (inactive)	63.1 µM (inactive)	27.6 µM (inactive)	> 60.3 µM (inactive)	39.9 µM (inactive)	46.3 µM (inactive)	31 µM (inactive)	49.7 µM (inactive)	57 µM (inactive)	> 96.4 µM (inactive)	53.7 µM (inactive)	> 100 µM (inactive)	> 61.7 µM (inactive)	> 85.9 µM (inactive)	58.9 µM (inactive)	45.6	44 µM (inactive)	44.8 µM (inactive)	> 85.9 µM (inactive)	27.8 µM (inactive)
NNC(=O)/C(NC(=O)c1ccccc1)=C(\N)c1cccc([N+](=O)[O-])c1	> 100 µM (inactive)	> 100 µM (inactive)	> 100 µM (inactive)	> 100 µM (inactive)	> 100 µM (inactive)	> 100 µM (inactive)	> 100 µM (inactive)	> 100 µM (inactive)	> 100 µM (inactive)	> 100 µM (inactive)	> 100 µM (inactive)	> 100 µM (inactive)	> 100 µM (inactive)	> 100 µM (inactive)	> 100 µM (inactive)	> 100	> 100 µM (inactive)	> 100 µM (inactive)	> 100 µM (inactive)	> 100 µM (inactive)
Cc1ccc(S(=O)(=O)C2=c3ncccc3=C3C(=O)c4ccccc4C(=O)C32)cc1 (centres undefined)	57.7 µM (inactive)	43.1 µM (inactive)	> 95.1 µM (inactive)	66.7 µM (inactive)	> 100 µM (inactive)	39.4 µM (inactive)	4.38 µM (inactive)	> 72.1 µM (inactive)	> 100 µM (inactive)	3.13 µM (inactive)	> 100 µM (inactive)	48.9 µM (inactive)	> 29.9 µM (inactive)	25.4 µM (inactive)	15.8 µM (inactive)	> 10	69 µM (inactive)	23 µM (inactive)	> 9.95 µM (inactive)	7.11 µM (inactive)
COC(=O)Nc1nc2ccc(S(=O)(=O)SC)cc2[nH]1	5.51 µM (inactive)	7.8 µM (inactive)	3.52 µM (inactive)	10.8 µM (inactive)	4.78 µM (inactive)	5.13 µM (inactive)	4.33 µM (inactive)	–	3.84 µM (inactive)	7.19 µM (inactive)	8.11 µM (inactive)	7.55 µM (inactive)	6.27 µM (inactive)	6.35 µM (inactive)	11.9 µM (inactive)	3.89	8.69 µM (inactive)	3.9 µM (inactive)	5.45 µM (inactive)	5.2 µM (inactive)
O=C(/C=C/c1c(O)ccc2ccccc12)c1cccc2ccccc12	> 71.9 µM (inactive)	> 100 µM (inactive)	23.7 µM (inactive)	> 100 µM (inactive)	> 59 µM (inactive)	> 100 µM (inactive)	27.5 µM (inactive)	34 µM (inactive)	42.1 µM (inactive)	> 95.1 µM (inactive)	> 100 µM (inactive)	> 89.5 µM (inactive)	> 57.9 µM (inactive)	> 100 µM (inactive)	–	> 58.7	> 100 µM (inactive)	> 100 µM (inactive)	> 100 µM (inactive)	> 100 µM (inactive)
Cc1ccc(SCC(CF)OC(C)n2cnc3c(O)nc(N)nc32)cc1 (centres undefined)	> 100 µM (inactive)	> 100 µM (inactive)	> 100 µM (inactive)	48.4 µM (inactive)	> 100 µM (inactive)	> 100 µM (inactive)	> 100 µM (inactive)	> 100 µM (inactive)	> 100 µM (inactive)	> 100 µM (inactive)	> 100 µM (inactive)	> 100 µM (inactive)	> 100 µM (inactive)	> 100 µM (inactive)	> 100 µM (inactive)	> 100	–	> 100 µM (inactive)	> 100 µM (inactive)	> 100 µM (inactive)
NC1=NN(c2ccccc2)C(=O)C1C(=O)C(=O)Nc1ccc(Cl)cc1 (centres undefined)	> 100 µM (inactive)	> 100 µM (inactive)	> 100 µM (inactive)	> 100 µM (inactive)	> 100 µM (inactive)	> 100 µM (inactive)	> 100 µM (inactive)	> 100 µM (inactive)	> 100 µM (inactive)	> 100 µM (inactive)	> 100 µM (inactive)	–	> 100 µM (inactive)	> 100 µM (inactive)	> 100 µM (inactive)	> 100	> 100 µM (inactive)	> 100 µM (inactive)	> 100 µM (inactive)	> 100 µM (inactive)
NC(Cc1cccc([N+](=O)[O-])c1)C(=O)O (centres undefined)	> 100 µM (inactive)	> 100 µM (inactive)	> 100 µM (inactive)	> 100 µM (inactive)	> 100 µM (inactive)	> 100 µM (inactive)	> 100 µM (inactive)	> 100 µM (inactive)	> 100 µM (inactive)	> 100 µM (inactive)	> 100 µM (inactive)	> 100 µM (inactive)	> 100 µM (inactive)	61.5 µM (inactive)	> 100 µM (inactive)	> 100	> 100 µM (inactive)	> 100 µM (inactive)	> 100 µM (inactive)	> 100 µM (inactive)
CC1(C)CCCOc2cccc(c2)OCCCC(C)(C)C1=O	35.2 µM (inactive)	–	16.5 µM (inactive)	–	20.7 µM (inactive)	–	13.3 µM (inactive)	51.4 µM (inactive)	26.7 µM (inactive)	24.9 µM (inactive)	31.7 µM (inactive)	80.7 µM (inactive)	25.5 µM (inactive)	23 µM (inactive)	27.5 µM (inactive)	35.5	37.3 µM (inactive)	19.1 µM (inactive)	26 µM (inactive)	25.1 µM (inactive)
CC[C@@]1(N(C)C)C(=O)OCc2c1cc1n(c2=O)Cc2cc3ccccc3nc2-1	29.2 µM (inactive)	16.1 µM (inactive)	18.5 µM (inactive)	> 100 µM (inactive)	17.1 µM (inactive)	16.9 µM (inactive)	12.7 µM (inactive)	25.4 µM (inactive)	31.3 µM (inactive)	26.4 µM (inactive)	61 µM (inactive)	29.4 µM (inactive)	22.4 µM (inactive)	19.1 µM (inactive)	47.1 µM (inactive)	45.3	45.9 µM (inactive)	22.1 µM (inactive)	> 100 µM (inactive)	12.5 µM (inactive)
O=c1[nH]nc(Cc2ccccc2)n1/N=C/c1ccc([N+](=O)[O-])cc1	> 100 µM (inactive)	> 100 µM (inactive)	> 100 µM (inactive)	> 100 µM (inactive)	> 100 µM (inactive)	> 100 µM (inactive)	> 100 µM (inactive)	> 100 µM (inactive)	> 10 µM (inactive)	49 µM (inactive)	> 100 µM (inactive)	–	> 100 µM (inactive)	> 100 µM (inactive)	> 100 µM (inactive)	> 100	> 100 µM (inactive)	> 100 µM (inactive)	> 100 µM (inactive)	> 100 µM (inactive)
CN1CCC[N+](C)=C1c1ccccc1	> 100 µM (inactive)	> 100 µM (inactive)	> 100 µM (inactive)	> 100 µM (inactive)	> 100 µM (inactive)	> 100 µM (inactive)	> 100 µM (inactive)	> 100 µM (inactive)	> 100 µM (inactive)	> 100 µM (inactive)	> 100 µM (inactive)	> 100 µM (inactive)	> 100 µM (inactive)	> 100 µM (inactive)	> 100 µM (inactive)	> 100	> 100 µM (inactive)	–	> 100 µM (inactive)	> 100 µM (inactive)
COC1C(O)C(C)OC(O[C@@H]2C[C@H]3CC[C@@H]4[C@H](CC[C@]5(C)[C@@H](C6=CC(=O)OC6)CC[C@]45O)[C@@]3(C)[C@H](O)C2)C1O (some centres undefined)	0.0849 µM (active)	< 0.0371 µM (active)	0.0559 µM (active)	0.1 µM (active)	< 0.0362 µM (active)	0.0472 µM (active)	< 0.01 µM (active)	–	0.0512 µM (active)	0.114 µM (active)	< 0.0221 µM (active)	0.264 µM (active)	0.151 µM (active)	0.106 µM (active)	0.057 µM (active)	0.0826	< 0.0474 µM (active)	0.142 µM (active)	0.296 µM (active)	0.0347 µM (active)
CCCCOc1ccc(CC(NC(=O)OC(C)(C)C)C(=O)NC(C)C(=O)NC(Cc2ccccc2)C(=O)NCC(N)=O)cc1 (centres undefined) (Boc-Y(nBu)AFG-NH2; configuration not given here)	59.4 µM (inactive)	> 100 µM (inactive)	24.3 µM (inactive)	> 100 µM (inactive)	65 µM (inactive)	> 100 µM (inactive)	66.5 µM (inactive)	> 100 µM (inactive)	32.6 µM (inactive)	18.7 µM (inactive)	> 100 µM (inactive)	> 100 µM (inactive)	> 100 µM (inactive)	61.4 µM (inactive)	> 100 µM (inactive)	> 100	–	> 100 µM (inactive)	> 100 µM (inactive)	> 100 µM (inactive)

Source: ChEMBL document CHEMBL1201862, “PubChem BioAssay data set” (2004)
